We go through one compound from paper PMC11423540, “Synthesis and biological evaluation of ortho-phenyl phenylhydroxamic acids containing phenothiazine with improved selectivity for class IIa histone deacetylases” (Journal of Enzyme Inhibition and Medicinal Chemistry, 2024).

For one data set, the system named is SCM-1 cells. In words: Cell viability (MTT) assay, SCM-1. The class given is cell-based. As to conditions: human gastric cancer cells, read-out: IC50 of cytotoxicity SCM-1. From the text:
(§1) Human breast cancer MDA-MB-231 cells and gastric cancer SCM-1 cells were purchased from the American Type Culture Collection (Manasas, VA, USA). SCC2095 human oral cancer cells were kindly provided by Professor Susan R. Mallery (The Ohio State University). Normal human lung fibroblasts (NHLFs; CC-2512) were purchased from the Lonza (Walkersville, MD, USA). SCM-1 cells were maintained in RPMI-1640 medium (Invitrogen, Carlsbad, CA, USA); MDA-MB-231 and SCC2095 cells were maintained in DMEM/F12 (Invitrogen); and NHLFs were maintained in FGM™-2 medium (Lonza) with 2% serum, supplemented with 10% heat-inactivated foetal bovine serum (FBS; Gibco, Grand Island, NY, USA). All cells were cultured at 37 °C in a humidified incubator containing 5% CO2 and 95% relative humidity.
(§2) To assess cell viability, cells were seeded in three replicates into 96-well plates at a density of 5×10^3/well for 24 h following incubation with compounds at the indicated concentrations. Then, cell viability was assessed with 3–(4,5-dimethylthiazol-2-yl)-2,5-diphenyltetrazolium bromide (MTT) solution (0.5 mg/mL) for 4h as described previously. After removing the medium, 200 µL of DMSO was added, and then the absorbance was measured at 570 nm using a plate reader (BMG LABTECH, Germany).

Data set [1] in a line: Cell viability (MTT) assay, normal human lung fibroblasts. It is filed as cell-based. As to conditions: normal human lung fibroblasts (NHLF, CC-2512); normal human lung fibroblast cells; read-out: IC50 of cytotoxicity against normal cells.
Source text: as §1, §2

In the next data set the target is HDAC4 (Homo sapiens, UniProt P56524). Description: HDAC inhibition assay, HDAC4.
The next data set concerns SCC2095 cells. Description: ROS determination by flow cytometry (DCFH-DA probe). It is filed as cell-based, human. As to conditions: SCC2095, 12 h or 24 h. As for the experimental part: Cells (2 × 10^5) were treated with tested compounds in 6-well plates for 24 h or 48 h, then washed with ice-cold PBS twice and harvested with trypsin. Cells were incubated with 5 µL Annexin V- FITC/PI (BD Pharmingen, San Diego) for 15 min in the dark condition. Then, the cells were measured by BD FACSCanto flow cytometer (BD, Franklin Lakes, NJ). For ROS determination, DMSO or H2O2 or compound 7 g-treated cells were stained with the ROS probe (DCFH-DA; 5 µM) and detected the DCFH-DA fluorescence.
On the technique in general: A flow cytometer gives signals particle by particle.

Another data set concerns HeLa nuclear HDACs. Description: HDAC inhibition assay, HeLa nuclear extract (mixture of class I HDACs 1, 2, and 3). As to conditions: read-out: IC50 HeLa nuclear HDACs, Boc-Lys-(AMC) substrate.
The target of a further data set is T1, HDAC8 (Homo sapiens, UniProt Q9BY41).
T1 sequence (Q9BY41 1-377): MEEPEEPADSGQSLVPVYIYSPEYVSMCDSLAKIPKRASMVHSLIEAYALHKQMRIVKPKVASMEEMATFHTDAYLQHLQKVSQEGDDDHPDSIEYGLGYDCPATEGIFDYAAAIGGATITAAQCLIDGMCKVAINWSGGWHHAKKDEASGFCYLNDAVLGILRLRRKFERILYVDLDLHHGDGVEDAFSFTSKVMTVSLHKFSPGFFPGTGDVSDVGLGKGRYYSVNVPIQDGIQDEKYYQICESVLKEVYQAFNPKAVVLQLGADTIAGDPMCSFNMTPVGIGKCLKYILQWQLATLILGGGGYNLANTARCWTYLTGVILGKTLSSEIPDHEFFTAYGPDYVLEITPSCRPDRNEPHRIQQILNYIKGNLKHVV
Description: HDAC inhibition assay, HDAC8.

The target in another data set is T2, HDAC7 (Homo sapiens, UniProt Q8WUI4).
T2 sequence (Q8WUI4 1-952): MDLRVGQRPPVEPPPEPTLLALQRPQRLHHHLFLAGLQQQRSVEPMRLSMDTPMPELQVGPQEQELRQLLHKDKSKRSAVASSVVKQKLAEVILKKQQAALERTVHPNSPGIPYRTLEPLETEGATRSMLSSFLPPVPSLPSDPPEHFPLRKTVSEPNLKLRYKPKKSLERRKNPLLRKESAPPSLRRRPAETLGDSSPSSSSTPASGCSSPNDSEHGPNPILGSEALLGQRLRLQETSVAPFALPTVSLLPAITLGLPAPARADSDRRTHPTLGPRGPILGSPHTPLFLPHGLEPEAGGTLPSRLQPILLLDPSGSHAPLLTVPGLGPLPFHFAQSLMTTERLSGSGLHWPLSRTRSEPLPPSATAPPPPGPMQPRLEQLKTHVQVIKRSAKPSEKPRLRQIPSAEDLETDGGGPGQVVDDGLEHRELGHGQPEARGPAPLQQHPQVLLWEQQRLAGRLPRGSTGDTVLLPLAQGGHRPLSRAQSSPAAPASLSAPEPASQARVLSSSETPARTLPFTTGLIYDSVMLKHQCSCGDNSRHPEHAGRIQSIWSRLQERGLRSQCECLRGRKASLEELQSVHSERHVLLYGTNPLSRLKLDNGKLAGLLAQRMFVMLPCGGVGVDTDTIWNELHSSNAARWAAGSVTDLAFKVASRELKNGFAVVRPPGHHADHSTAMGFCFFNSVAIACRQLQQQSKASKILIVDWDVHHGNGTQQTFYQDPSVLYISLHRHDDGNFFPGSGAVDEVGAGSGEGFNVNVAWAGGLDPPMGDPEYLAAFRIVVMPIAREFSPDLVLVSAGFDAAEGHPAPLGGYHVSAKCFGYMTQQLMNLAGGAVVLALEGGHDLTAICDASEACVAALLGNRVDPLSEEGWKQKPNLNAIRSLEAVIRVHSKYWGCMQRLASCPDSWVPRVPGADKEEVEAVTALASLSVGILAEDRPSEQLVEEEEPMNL
In words: HDAC inhibition assay, HDAC7.

The subject of a further data set is MDA-MB-231 cells. Description: Cell viability (MTT) assay, MDA-MB-231. It is filed as cell-based. As to conditions: human breast cancer cells, read-out: IC50 of cytotoxicity MDA-MB-231.
Source text: as §1, §2

The test system of a further data set is HDAC4 protein. Description: Surface plasmon resonance binding to HDAC4. The settings on record: Figure S1. The method, then:
HDAC4 protein was crosslinked by EDC (1-ethyl-3-(3-dimethylaminopropyl) carbodiimide) and NHS (N-hydroxysuccinimide). The crosslinking reagent and protein were co- incubated 30 minutes at 25°C.
Binding reactivity to mutant HDAC4 protein was performed by SPR (OpenSPR, Nicoyalife). The recombinant HDAC4 protein was crosslinked by EDC/NHC regent, followed by dilution to a concentration of 50 μg/mL with PBS and immobilized onto a amine sensor chip (Nicoyalife). The analytes were tested at various dilutions in PBST, and the flow rate was maintained at 20 μL/min during analysis. The amine sensor chip was regenerated with 10 mM glycine−HCl, pH2.5. The results were analyzed using TraceDrawer software (Nicoyalife).
For orientation: In SPR one partner is held on a chip, and binding of the other changes the refractive index at the surface.

HDAC4, sequence (P56524 whole entry): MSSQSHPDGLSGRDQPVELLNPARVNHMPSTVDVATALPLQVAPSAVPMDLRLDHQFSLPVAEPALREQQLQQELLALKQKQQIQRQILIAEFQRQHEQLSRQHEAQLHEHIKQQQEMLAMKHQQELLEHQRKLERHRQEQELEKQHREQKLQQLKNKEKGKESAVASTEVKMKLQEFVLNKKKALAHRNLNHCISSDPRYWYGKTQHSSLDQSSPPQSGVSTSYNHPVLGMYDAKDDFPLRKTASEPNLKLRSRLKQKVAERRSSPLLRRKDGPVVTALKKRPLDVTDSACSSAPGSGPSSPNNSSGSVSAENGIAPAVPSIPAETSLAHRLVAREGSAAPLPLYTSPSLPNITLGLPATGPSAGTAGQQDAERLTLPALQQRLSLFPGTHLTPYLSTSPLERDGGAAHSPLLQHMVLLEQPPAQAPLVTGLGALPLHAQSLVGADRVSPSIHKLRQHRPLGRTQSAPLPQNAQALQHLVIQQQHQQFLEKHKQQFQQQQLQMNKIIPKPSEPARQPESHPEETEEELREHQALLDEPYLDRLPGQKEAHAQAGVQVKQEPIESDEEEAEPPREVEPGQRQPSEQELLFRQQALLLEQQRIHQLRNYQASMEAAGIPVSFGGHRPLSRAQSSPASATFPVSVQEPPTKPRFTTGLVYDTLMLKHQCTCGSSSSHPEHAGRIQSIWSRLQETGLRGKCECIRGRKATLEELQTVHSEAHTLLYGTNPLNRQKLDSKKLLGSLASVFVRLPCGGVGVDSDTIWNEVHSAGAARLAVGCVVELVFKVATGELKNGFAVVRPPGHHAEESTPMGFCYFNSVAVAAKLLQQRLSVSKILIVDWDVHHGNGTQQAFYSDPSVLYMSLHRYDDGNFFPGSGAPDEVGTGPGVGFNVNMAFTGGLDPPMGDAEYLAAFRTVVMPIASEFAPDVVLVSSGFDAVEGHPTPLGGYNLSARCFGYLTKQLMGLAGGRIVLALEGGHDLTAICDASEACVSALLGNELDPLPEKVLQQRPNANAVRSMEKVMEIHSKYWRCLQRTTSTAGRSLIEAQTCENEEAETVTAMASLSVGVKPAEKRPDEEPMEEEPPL

Usually IC50 stands for the concentration that gives 50% inhibition. `NC(=NO)c1ccc2c(c1)N(Cc1ccc(C(=O)NO)c(-c3ccccc3)c1)c1ccccc1S2` [Compound 7g, N-Hydroxy-4-[2-(N’-hydroxycarbamimidoyl)-10H-phenothiazin-10-yl]methyl-2-phenylbenzamide]: the 50% inhibitory concentration (IC50) in the data set with SCM-1 cells is 5.8 ± 0.3 µM; in data set [1], 8 µM; at HDAC4, 0.18 ± 0.06 µM; in the data set on HeLa nuclear HDACs, over 40 µM; at HDAC8, 1.95 µM; against HDAC7, 0.19 ± 0.04 µM. For the same compound, in the data set on MDA-MB-231 cells, the IC50 is 8.4 ± 2.7 µM. The ROS generation result with SCC2095 cells is “increased”. For the same compound, the “SPR binding to HDAC4 protein” value in the data set with HDAC4 protein is “can bind to HDAC4 protein”.
